Assays:
Experiment in all cases: relative viability (nuclei count vs DMSO), 5 days (fraction); higher = more cells survive
Sulindac + Alpelisib = compound: CC1=C(CC(=O)O)c2cc(F)ccc2/C1=C\c1ccc([S+](C)[O-])cc1 [Sulindac] + Cc1nc(NC(=O)N2CCC[C@H]2C(N)=O)sc1-c1ccnc(C(C)(C)C(F)(F)F)c1 [Alpelisib] (partner 2 µM)
Procedure, shortened: (§1)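 After 5 days of treatment, lung cancer cells in 1536-well plates were fixed and stained in a single step (final 0.05% Triton X-100, 1% formaldehyde, 1 ug/ml Hoechst) and their nuclei counted on 4× images. Treatment had been applied by pin tool the day after seeding as one drug alone or as a fixed anchor-drug dose with five library-drug doses (not always all listed) in √10 steps. Relative viability is the nuclei count of treated wells divided by that of vehicle wells, and values are medians of duplicate plates.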

[1] = compound: CN[C@@H]1C[C@H]2O[C@@](C)([C@@H]1OC)n1c3ccccc3c3c4c(c5c6ccccc6n2c5c31)C(=O)NC4 [Staurosporine] + Nc1ncn([C@H]2C[C@H](O)[C@@H](CO)O2)c(=O)n1 [Decitabine] (partner 2 µM)
Procedure, shortened: as §1

[2] = compound: O=c1[nH]cc(F)c(=O)[nH]1 [5-Fluorouracil] + CS(=O)(=O)N1CCN(Cc2cc3nc(-c4cccc5[nH]ncc45)nc(N4CCOCC4)c3s2)CC1 [Pictilisib] (partner 1 µM)
Procedure, shortened: as §1

[3] = compound: O=c1[nH]cc(F)c(=O)[nH]1 [5-Fluorouracil] + N=C(N)NC(=N)NCCc1ccccc1 [Phenformin] (partner 250 µM)
Procedure, shortened: as §1

Cell Line	relative viability (Sulindac + Alpelisib; first compound 0.08 µM)	relative viability (Sulindac + Alpelisib; first compound 0.253 µM)	relative viability (Sulindac + Alpelisib; first compound 2.53 µM)	relative viability (Sulindac + Alpelisib; first compound 8 µM)	relative viability ([1]; first compound 0.005 µM)	relative viability ([1]; first compound 0.01581 µM)	relative viability ([1]; first compound 0.05 µM)	relative viability ([1]; first compound 0.1581 µM)	relative viability ([1]; first compound 0.5 µM)	relative viability ([2]; first compound 0.02 µM)	relative viability ([2]; first compound 0.2 µM)	relative viability ([2]; first compound 0.6325 µM)	relative viability ([2]; first compound 2 µM)	relative viability ([3]; first compound 0.02 µM)	relative viability ([3]; first compound 0.2 µM)	relative viability ([3]; first compound 0.6325 µM)	relative viability ([3]; first compound 2 µM)	relative viability (Sulindac + Alpelisib; first compound 0.8 µM)
COR-L23	0.871	0.867	0.714	1.13	0.362	0.248	0.193	0.092	0.0806	0.864	0.711	0.367	0.231	0.4	0.427	0.278	0.228	–
HCC-44	0.928	0.987	0.891	0.821	0.937	–	0.661	0.302	0.275	0.784	0.58	0.46	0.33	–	0.262	0.154	0.182	0.761
LOU-NH91	0.711	0.7	0.745	0.808	0.788	0.607	0.624	0.4	0.314	0.512	0.47	0.388	0.34	0.731	0.858	0.589	0.298	0.636
NCI-H520	0.965	0.839	0.873	1.17	0.527	0.465	0.392	0.188	0.161	0.316	0.272	0.271	0.232	0.525	0.677	0.46	0.442	0.894
NCI-H661	0.639	0.551	0.621	0.725	0.555	0.484	0.436	0.267	0.186	0.35	0.469	0.376	0.433	0.274	–	0.284	0.287	0.535
NCI-H1975	0.73	0.757	0.674	0.694	0.255	0.206	0.184	0.15	0.131	0.309	0.308	0.262	0.217	0.385	0.357	0.266	0.194	–
NCI-H1755	1.17	1.06	0.935	1	0.757	0.634	0.483	0.336	0.133	0.453	0.5	0.301	0.184	0.667	0.598	0.364	0.256	0.874
NCI-H2009	1.23	1.18	1.18	1.27	0.331	0.272	0.196	0.172	0.0871	0.798	0.679	0.533	0.446	0.551	0.548	0.438	0.401	1.1
LK-2	1.42	1.14	–	1.38	0.327	0.173	0.369	0.0995	0.0618	0.635	0.575	0.374	0.452	0.597	0.582	0.57	0.381	–
HCC-78	0.353	0.387	0.27	0.374	0.76	0.617	0.627	0.444	0.49	0.236	0.182	0.181	–	0.697	0.706	0.558	0.312	0.352
NCI-H3122	0.639	0.722	0.756	0.941	0.541	–	0.602	–	0.329	0.608	0.662	0.312	0.256	0.366	0.349	0.21	0.174	0.699
HOP-62	1.15	0.994	0.963	1.21	0.219	0.289	0.19	0.131	0.126	0.711	0.879	0.705	0.569	0.617	0.728	0.636	0.644	0.842
NCI-H727	0.687	0.537	0.579	0.771	0.859	0.587	0.432	0.393	0.316	0.395	0.464	0.369	0.305	0.532	0.472	0.489	0.495	0.591
NCI-H358	1.01	0.878	0.808	1.1	0.244	0.213	0.121	0.0796	0.0666	0.337	0.354	0.337	0.294	0.351	0.383	0.313	0.262	0.684
BEN	1.09	1.22	1	1.15	0.882	0.621	0.486	0.279	0.311	0.557	0.597	0.536	0.555	0.255	0.257	0.285	0.251	0.831
NCI-H460	0.82	0.492	0.477	0.709	0.397	0.308	0.175	0.0228	0.0211	0.443	0.384	0.155	0.0868	0.551	0.447	0.109	0.0647	–
SK-MES-1	1.06	1.05	0.815	0.982	0.32	0.239	0.204	0.136	0.121	0.34	0.338	0.297	0.196	0.748	0.4	0.331	0.242	0.601
NCI-H1792	0.959	0.717	0.726	0.866	0.432	0.298	0.224	0.133	0.065	0.337	0.243	0.113	0.0763	0.199	0.365	0.177	0.122	–

Cell Line	relative viability (Sulindac + Alpelisib; first compound 0.08 µM)	relative viability (Sulindac + Alpelisib; first compound 0.253 µM)	relative viability (Sulindac + Alpelisib; first compound 2.53 µM)	relative viability (Sulindac + Alpelisib; first compound 8 µM)	relative viability ([1]; first compound 0.005 µM)	relative viability ([1]; first compound 0.01581 µM)	relative viability ([1]; first compound 0.05 µM)	relative viability ([1]; first compound 0.1581 µM)	relative viability ([1]; first compound 0.5 µM)	relative viability ([2]; first compound 0.02 µM)	relative viability ([2]; first compound 0.2 µM)	relative viability ([2]; first compound 0.6325 µM)	relative viability ([2]; first compound 2 µM)	relative viability ([3]; first compound 0.02 µM)	relative viability ([3]; first compound 0.2 µM)	relative viability ([3]; first compound 0.6325 µM)	relative viability ([3]; first compound 2 µM)	relative viability (Sulindac + Alpelisib; first compound 0.8 µM)
NCI-H2085	1.02	0.963	1.02	0.922	0.527	0.4	0.463	0.364	0.352	0.461	0.504	0.445	0.507	0.577	0.844	0.761	0.68	0.935
LC-2-ad	0.886	0.913	0.917	0.974	0.765	0.695	0.623	0.167	0.166	0.57	0.442	0.324	0.231	0.554	0.512	0.407	0.385	0.86
201T	0.967	1.04	0.999	1.02	0.884	–	0.787	0.649	0.672	0.759	0.597	0.442	0.373	0.423	0.378	0.288	0.297	1.02
NCI-H2023	0.683	0.572	0.591	0.587	0.218	0.162	0.116	0.0753	0.0615	0.283	0.164	0.0894	0.0821	0.448	0.181	0.102	0.0896	0.472
NCI-H1395	0.948	1.05	0.973	1.08	0.76	0.596	0.454	0.314	0.27	0.581	0.62	0.578	0.594	0.426	0.458	0.428	0.494	0.975
NCI-H23	0.763	0.78	0.658	0.859	0.309	0.213	0.203	0.163	0.161	0.565	0.53	0.374	0.251	0.686	0.897	0.438	0.298	0.636
LU99A	0.468	0.564	0.498	0.596	0.934	0.672	0.513	0.341	0.198	0.289	0.314	0.317	0.261	0.905	0.786	0.738	0.586	0.455
NCI-H1437	1.25	0.905	0.946	1.17	0.639	0.442	0.439	0.248	0.15	–	0.183	0.116	0.1	0.238	0.192	0.137	0.173	0.733
EKVX	0.819	0.824	0.997	1.04	0.31	0.271	0.202	0.191	0.18	–	–	0.151	0.115	0.18	0.179	0.13	0.134	0.721
ABC-1	1.25	1.02	0.861	1	0.578	0.563	0.353	0.259	0.157	0.885	0.682	0.59	0.599	0.202	0.253	0.257	0.23	0.811
NCI-H647	1.43	1.27	1.15	1.23	0.379	0.247	0.266	0.0707	0.062	0.473	0.483	0.429	0.401	0.504	0.495	0.544	0.399	0.718
NCI-H1734	0.712	0.696	0.693	0.805	0.495	0.353	0.215	0.147	0.122	0.496	0.49	0.427	0.303	0.374	0.436	0.379	0.313	0.64
LCLC-97TM1	0.272	0.278	–	0.236	0.257	0.198	0.217	0.217	0.223	0.184	0.235	0.133	0.139	0.386	0.472	0.443	0.407	0.238
NCI-H2170	1.03	0.904	0.835	0.912	0.492	–	0.431	0.354	0.229	0.354	0.338	0.314	0.285	0.393	0.42	0.341	0.293	0.613
NCI-H1793	0.744	0.78	0.857	0.804	0.341	–	0.311	0.125	0.191	0.37	0.376	0.303	0.247	0.467	0.476	0.42	0.266	0.587
NCI-H322M	0.644	0.777	0.848	0.928	0.667	0.49	0.529	0.475	0.49	0.564	0.536	0.529	0.427	0.857	0.743	0.724	0.541	0.652
RERF-LC-KJ	0.837	0.889	0.877	0.746	0.647	0.397	0.275	0.23	0.201	0.587	0.593	0.604	0.465	0.465	0.452	0.466	0.386	0.65
EPLC-272H	0.759	–	0.985	1.03	0.367	0.193	0.203	0.102	0.0597	0.337	0.294	0.199	0.221	0.247	0.257	0.245	0.184	0.618

Source: the supplement of paper PMC10307832
